Laboratory results as given in PubChem BioAssay AID2060612 (Molecular Pharmacology Branch, DTP, NCI, 2025).

Tested on: 565232-114-T-J1-PDC complex spheroid viability
Assay: Anticancer human tumor 565232-114-T-J1-PDC patient-derived bladder carcinoma cell line growth inhibition [CLK]
Conditions: for IC50: curve of first compound; for viability, T/C: stronger effect = lower value; active = viability on the fitted dose curve at most 10% of control; inactive = the rest
Description: A high-throughput screen of multi-cell type tumor spheroids was designed to identify active combinations of […] and targeted small molecules. Complex spheroids include a stromal component modeled by human endothelial cells (HUVEC) and fibroblasts modeled by human mesenchymal stem cells (MSCs). The concentration ranges selected for each drug and investigational agent were based upon clinically achievable concentrations if the clinical Cmax of the agent was known.
Compounds. The drugs and investigational agents: cirtuvivint (SM08502; NSC835563), CC-671 (NSC850746), vemurafenib (NSC761431), tapotoclax (NSC804041), sotorasib (NSC818433), adagrasib (NSC831453), MRTX-1133 (NSC836407), BAY2416964 (NSC825713), copanlisib (NSC816437), inavolisib (NSC800729), abemaciclib (NSC768073), osimertinib (NSC779217), entinostat (NSC756642), eltanexor (KPT-8602, NSC794443), venetoclax (NSC766270), ceralasertib (NSC777638), bortezomib (NSC756655), olaparib (NSC753686), talazoparib (NSC767125), alisertib (NSC759677), peposertib (NSC802822), gemcitabine (NSC613327), 5-fluorouracil (NSC19893), SN-38 (NSC673596), oxaliplatin (NSC266046), paclitaxel (NSC125973), and doxorubicin (NSC123127), were obtained from the National Cancer Institute (NCI) Developmental Therapeutics Program Chemical Repository. The FDA-approved anticancer drug set is available from the Developmental Therapeutics Program at https://dtp.cancer.gov/organization/dscb/obtaining/available plates.htm. […] The stock solutions were prepared in dimethyl sulfoxide (DMSO, Sigma-Aldrich, St. Louis, MO, cat. D2650), except for the platinum complexes which were prepared in saline (Quality Biological, Gaithersburg, MD, cat. 114-055-101), at 800-fold the tested concentration and stored at -70 degrees C prior to their use. All drugs and investigational agents were tested over a range starting from a high concentration at or near the clinical Cmax and decreasing in half-log increments. If the clinical Cmax for an agent had not been determined, the highest concentration tested was 10 microM.
Cell Culture. All cells were maintained in an incubator at 37 degrees C and 5% CO2 with 95% humidity. The PDC lines were cultured according to standard operating procedures established by the NCI PDMR. Briefly, all PDCs were thawed and cultured in Matrigel-coated flasks prepared with a working solution of 1X Ham's F-12 nutrient mix, without supplementation (Invitrogen, Waltham, MA, cat. 11765054), 100 U/mL penicillin-streptomycin (Invitrogen, cat. 15140122), and 2.5% Matrigel (Corning Inc., Corning, NY, cat. 354248) for the first three passages. The 947758-054-R-J2-PDC line was cultured in 6B/Colon 1A media, which includes advanced DMEM/F-12 (Thermo Fisher Scientific, cat. 12634028), 10 mM HEPES (Thermo Fisher Scientific, cat. 15630080), 1X GlutaMAX supplement (Thermo Fisher Scientific, cat. 35050061), 0.1 mg/mL primocin (InvivoGen, cat. ant-pm-2), 10% defined fetal bovine serum, heat inactivated (HyClone Laboratories Inc., cat. SH30070.03HI), 1.25 mM N-Acetyl-L-cysteine (Sigma-Aldrich, cat. A9165), 10 mM nicotinamide (Sigma-Aldrich, cat. N0636), 1X B-27 supplement (Thermo Fisher Scientific, cat. 17504044), 1X N-2 supplement (Thermo Fisher Scientific, cat. 17502048), and 10 microM Y-27632 dihydrochloride (Tocris Bioscience, cat. 1254). The 876862-298-R-J1-PDC was cultured in 6E media, which includes all 6B/Colon 1A media components plus 50% L-WRN conditioned media (ATCC, cat. CRL-3276), 50 ng/mL recombinant human EGF recombinant protein (hEGF; Thermo Fisher Scientific, cat. PHG0311), 10 ng/mL recombinant human fibroblast growth factor 10 (hGFG-10; PeproTech, cat. 100-26), 1 ng/mL recombinant human fibroblast growth factor 2 (hFGF-2; PeproTech, cat. 100-18B), and 1 µM prostaglandin E2 (PGE2; Tocris, cat. 2296). The 227483-062-R1-J1-PDC line was cultured in Panc media, containing all 6E components except hFGF-2, with the addition of 500 nM SB-431542 (Selleckchem, cat. S1067) and 10 nM gastrin (Tocris, cat. 3006). […]
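Note: spheroids exposed to compounds for 7 days before readout.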
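Throughout, for viability, T/C: 100% = DMSO vehicle wells with luminescence normalized to vehicle control.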

NC(=O)C(=Cn1cnc(-c2cc(C(F)(F)F)cc(C(F)(F)F)c2)n1)c1cncnc1 + CN1CCN(c2cc(C(=O)Nc3cc4cc(-c5cnn(C)c5)ccc4cn3)ccn2)CC1
active: viability, T/C (second compound 0.0316 µM, first compound 0.949 µM) 2.12% | viability, T/C (second compound 0.0316 µM, first compound 3 µM) 2.86% | viability, T/C (second compound 0.1 µM, first compound 3 µM) 0.17% | viability, T/C (second compound 0.316 µM, first compound 0.0949 µM) 4.82% | viability, T/C (second compound 0.316 µM, first compound 0.3 µM) 0.31% | viability, T/C (second compound 0.316 µM, first compound 0.949 µM) 0.21% | viability, T/C (second compound 0.316 µM, first compound 3 µM) 0.15% | viability, T/C (second compound 1 µM, first compound 0.00949 µM) 0.13% | viability, T/C (second compound 1 µM, first compound 0.03 µM) 1.42% | viability, T/C (second compound 1 µM, first compound 0.0949 µM) 0.31% | viability, T/C (second compound 1 µM, first compound 0.3 µM) 0.24% | viability, T/C (second compound 1 µM, first compound 0.949 µM) 0.19% | viability, T/C (second compound 1 µM, first compound 3 µM) 0.08% | viability, T/C (second compound 3.16 µM, first compound 0.00949 µM) 0.19% | viability, T/C (second compound 3.16 µM, first compound 0.03 µM) 0.22% | viability, T/C (second compound 3.16 µM, first compound 0.0949 µM) 3.11% | viability, T/C (second compound 3.16 µM, first compound 0.3 µM) 0.24% | viability, T/C (second compound 3.16 µM, first compound 0.949 µM) 1.65% | viability, T/C (second compound 3.16 µM, first compound 3 µM) 0.16% | viability, T/C (second compound 10 µM, first compound 0.00949 µM) 0.14% | viability, T/C (second compound 10 µM, first compound 0.03 µM) 0.12% | viability, T/C (second compound 10 µM, first compound 0.0949 µM) 1.13% | viability, T/C (second compound 10 µM, first compound 0.3 µM) 0.76% | viability, T/C (second compound 10 µM, first compound 0.949 µM) 0.21% | viability, T/C (second compound 10 µM, first compound 3 µM) 0.37%
inactive: viability, T/C (second compound 0.0316 µM, first compound 0.00949 µM) 110% | viability, T/C (second compound 0.0316 µM, first compound 0.03 µM) 79.4% | viability, T/C (second compound 0.0316 µM, first compound 0.0949 µM) 116% | viability, T/C (second compound 0.0316 µM, first compound 0.3 µM) 63% | viability, T/C (second compound 0.1 µM, first compound 0.00949 µM) 112% | viability, T/C (second compound 0.1 µM, first compound 0.03 µM) 89.6% | viability, T/C (second compound 0.1 µM, first compound 0.0949 µM) 69.7% | viability, T/C (second compound 0.1 µM, first compound 0.3 µM) 44.2% | viability, T/C (second compound 0.1 µM, first compound 0.949 µM) 1.42% | viability, T/C (second compound 0.316 µM, first compound 0.00949 µM) 11.2% | viability, T/C (second compound 0.316 µM, first compound 0.03 µM) 19.1%
384 nM: IC50 (second compound 0.0316 µM)
190 nM: IC50 (second compound 0.1 µM)
< 9.49 nM: IC50 (second compound 0.316 µM) | IC50 (second compound 1 µM) | IC50 (second compound 3.16 µM) | IC50 (second compound 10 µM)

Nc1ccccc1NC(=O)c1ccc(CNC(=O)OCc2cccnc2)cc1 + CN1CCN(c2cc(C(=O)Nc3cc4cc(-c5cnn(C)c5)ccc4cn3)ccn2)CC1
active: viability, T/C (second compound 0.0316 µM, first compound 10 µM) 1.38% | viability, T/C (second compound 0.1 µM, first compound 10 µM) 0.29% | viability, T/C (second compound 0.316 µM, first compound 1 µM) 9.54% | viability, T/C (second compound 0.316 µM, first compound 3.16 µM) 2.07% | viability, T/C (second compound 0.316 µM, first compound 10 µM) 0.07% | viability, T/C (second compound 1 µM, first compound 0.0316 µM) 0.15% | viability, T/C (second compound 1 µM, first compound 0.1 µM) 1.24% | viability, T/C (second compound 1 µM, first compound 0.316 µM) 3.47% | viability, T/C (second compound 1 µM, first compound 1 µM) 0.16% | viability, T/C (second compound 1 µM, first compound 3.16 µM) 1.45% | viability, T/C (second compound 1 µM, first compound 10 µM) 0.11% | viability, T/C (second compound 3.16 µM, first compound 0.0316 µM) 0.3% | viability, T/C (second compound 3.16 µM, first compound 0.1 µM) 3.93% | viability, T/C (second compound 3.16 µM, first compound 0.316 µM) 3.86% | viability, T/C (second compound 3.16 µM, first compound 1 µM) 0.23% | viability, T/C (second compound 3.16 µM, first compound 3.16 µM) 0.19% | viability, T/C (second compound 3.16 µM, first compound 10 µM) 0.18% | viability, T/C (second compound 10 µM, first compound 0.0316 µM) 0.11% | viability, T/C (second compound 10 µM, first compound 0.1 µM) 0.5% | viability, T/C (second compound 10 µM, first compound 0.316 µM) 2.65% | viability, T/C (second compound 10 µM, first compound 1 µM) 0.16% | viability, T/C (second compound 10 µM, first compound 3.16 µM) 0.94% | viability, T/C (second compound 10 µM, first compound 10 µM) 0.18%
2660 nM: IC50 (second compound 0.1 µM)
inactive: viability, T/C (second compound 0.0316 µM, first compound 0.0316 µM) 110% | viability, T/C (second compound 0.0316 µM, first compound 0.1 µM) 108% | viability, T/C (second compound 0.0316 µM, first compound 0.316 µM) 111% | viability, T/C (second compound 0.0316 µM, first compound 1 µM) 100% | viability, T/C (second compound 0.0316 µM, first compound 3.16 µM) 89.8% | viability, T/C (second compound 0.1 µM, first compound 0.0316 µM) 107% | viability, T/C (second compound 0.1 µM, first compound 0.1 µM) 93.5% | viability, T/C (second compound 0.1 µM, first compound 0.316 µM) 92.5% | viability, T/C (second compound 0.1 µM, first compound 1 µM) 89.9% | viability, T/C (second compound 0.1 µM, first compound 3.16 µM) 42.9% | viability, T/C (second compound 0.316 µM, first compound 0.0316 µM) 16.2% | viability, T/C (second compound 0.316 µM, first compound 0.1 µM) 23% | viability, T/C (second compound 0.316 µM, first compound 0.316 µM) 11.5%
< 31.6 nM: IC50 (second compound 0.316 µM) | IC50 (second compound 1 µM) | IC50 (second compound 3.16 µM) | IC50 (second compound 10 µM)
5260 nM: IC50 (second compound 0.0316 µM)
